Measured values as given in publication PMC11868579 (Nature Communications, 2024).
Values joined by “and” are separate entries in the source; they are usually repeats but may differ in a detail not shown here. Equal entries are not always repeated.

Assays:
[1] = system: cap-dependent and cap-independent (IRES) protein synthesis; assay: Bicistronic protein synthesis reporter in HEK293 cells; assay type: cell-based, human; conditions: for Cap translation, Average / IRES, Average: HEK293, n=3; for Cap translation, Average: cap-dependent luciferase reporter; for IRES, Average: cap-independent luciferase driven by viral IRES
Description: Supplementary Fig. 10 Determination of the effects of compound 4 on protein synthesis and viability. a HEK293 cells were transfected with protein synthesis reporter expressing bicistonic mRNA with a cap-dependent luciferase reporter and a cap-independent luciferase driven by a viral IRES. Cells were treated with 1 or 10 µM […]
with compound 4 for 24 hr. […]
Source data is located in the Supplementary Source Data file

[2] = target: T1, eIF4E W73F (Homo sapiens, UniProt P06730, W73F); assay: CETSA in eIF4E-dTAG model expressing W73F eIF4E; assay type: cell-based; conditions: intact cells
T1 construct: expressed in transfected cells; host or cells: H1299 eIF4E-dTAG clone C3-1, eIF4E-dTAG depleted with dTAG^V-1 before compound
T1 sequence (P06730 whole entry W73F): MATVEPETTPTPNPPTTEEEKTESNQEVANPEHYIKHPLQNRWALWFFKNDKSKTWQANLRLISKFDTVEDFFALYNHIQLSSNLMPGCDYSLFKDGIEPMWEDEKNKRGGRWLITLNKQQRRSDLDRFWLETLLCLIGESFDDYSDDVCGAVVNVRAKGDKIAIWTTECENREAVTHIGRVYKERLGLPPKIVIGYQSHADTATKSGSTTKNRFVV
Description: Cells (1.5 × 10^6 cells) were plated into 75 cm^2 flasks and allowed to attached overnight. After treatment with compound 4 or 5 for 6 h, they were harvested by trypsinisation and washed x2 in ice cold PBS. Cells were resuspended in 1 ml of cold PBS supplemented with protease and phosphatase inhibitors (Fisher Scientific, cat#1861281). Resuspended cells were divided into 100 μl aliquots and centrifuged at 300 x g for 3 min at 4 °C. Following centrifugation, 75μl of supernatant was removed and cells resuspended in the remaining volume. Cell suspensions were heated at 40.9, 43.7, 48.1, 52.9, 57.6, 62.4, 67.2, 71.9, 76.3 and 79.1 °C for 3 mins followed by cooling at 20 °C for 3 min[25]. Suspensions were freeze-thawed twice using liquid nitrogen. Soluble fractions were separated from cell debris by centrifuging at 20,000 x g for 30 min at 4 °C. Samples were then analysed by Western Blot.
Supplementary Fig. 18. Comparison of compound 4 binding to wild-type or […]
Cells were treated with dTAGV-1 (1 μM) for 16 hr. Compound 4 (10 μM) or compound 5 (10 μM) was then added for 6 hrs.
Vi nculin was used for loading control. Blots are from one biological repeat. b […]
was used as loading control . c Cells were treated with dTAGV -1 (1 μM) for 16 hr.
Compound 4 (50 μM) or compound 5 (50 μM) was then added for 6 hrs. […]
following incubation at 48.1 °C. Vinculin was used for loaing control. All blots are […]

[3] = target: T2, full-length eIF4G:eIF4E (Homo sapiens, UniProt P06730); assay: eIF4G:eIF4E binding, summary over cell line lysates; assay type: biochemical
T2 construct: endogenous in cells; host or cells: HeLa, SW620 or H1299 cells (lysates; intact H1299 cells in A13)
T2 sequence (P06730 2-217 limits assumed): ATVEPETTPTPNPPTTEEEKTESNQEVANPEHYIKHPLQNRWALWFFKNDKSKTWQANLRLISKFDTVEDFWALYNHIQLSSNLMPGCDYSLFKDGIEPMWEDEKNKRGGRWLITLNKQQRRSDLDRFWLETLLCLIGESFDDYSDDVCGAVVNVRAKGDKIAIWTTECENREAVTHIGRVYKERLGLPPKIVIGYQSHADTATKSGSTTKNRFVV
Description: This assay uses plates with carbon electrodes and electro-chemiluminescent labels (SULFO-TAGs) that are conjugated to detection antibodies. When an electric current is applied to the plate electrodes the SULFO-TAG labels will emit light that is measured to quantify analytes in the sample. […] For measuring exogenously expressed FLAG-tagged-eIF4E, 96-well Multiarray SECTOR plates with carbon electrodes (MSD, cat#L15XB) were coated with 25 ul of 4 µg/ml anti-FLAG M2 (Sigma-aldrich, cat#F1804, RRID:AB_262044) in PBS for 1 hr at RT with shaking. The plates were washed with 3 ×150 µl/well MSD wash buffer (cat#R61AA-1; 0.2% Tween-20 in PBS), then blocked with 150 µl/well block buffer (MSD, cat# R93AA) for 1 h. […] The incubated plates were washed 4x in 150 µl in MSD wash buffer and were re-blocked by the addition of 25 μl of blocking buffer containing a 1:500 dilution of the secondary antibody and incubated for 1 hr at RT with rotational shaking. […] Plates were then washed again 4x in 150 µl in MSD wash buffer and 25 μl of a 1:50 dilution of Goat anti-rabbit Sulfo-Tag (MSD, Cat# R32AB-1) in MSD blocking buffer was added and the plates incubated for 1 h at RT with rotational shaking. After a final wash step, 150 μl Read Buffer T4X (MSD, Cat# R92-TC2) was added and the plate read using the MSD QuickPlex SQ 120 plate reader.

[4] = Suppl Fig. 10c, concentration response of Compound 4 (test not named); conditions: 3 experiments
[5] = system: 4E-BP1 protein expression; assay: Immunoblot of 4E-BP1 expression after dTAGV-1; assay type: cell-based, human; conditions: 1μM, control = 1.00
Description: Supplementary Fig. 15 Expression of 4E-BP1 following dTAGV-1 treatment. a […]
16 hr treatment of 1 µM dTAGV-1 or DMSO control in H1299 parental cells and the […]
Vinculin was used as a loading control. Results are representative of 3 biological replicates. b Quantification of 4E-BP1 protein expression […]
was normalised to the DMSO negative control immunoblot (mean ± SEM of 3 […]
differences (p<0.05). Source data is located in the Supplementary Source Data file.
(§1) (1 picture or pasted object on this page, not shown here)

[6] = system: H1299 clone C3-1; assay: Concentration response of cell survival, clone C3-1, Incucyte; assay type: cell-based, human; conditions: clone C3-1, 5 days continuous exposure
Description: Real time monitoring of cell growth was performed with the IncuCyte ZOOM live cell imaging system (Essen BioSciences, USA). Cells were seeded in 96 well plates (Corning, cat#353072) and treated on the next day. The resulting phase-contrast images were analysed using IncuCyte ZOOM 2018A software and results were expressed as percentage confluency of cells.
Supplementary Fig. 14 Treatment of the eIF4E-dTAG-degradation model with negative control dTAGV-1 compound. a Plot of concentration responsiveness versus cell survival for H1299 clone C3-1 following 120 hr exposure to different concentrations of dTAGv-1. Cell confluency (%) was calculated using Incucyte Zoom software and plotted as the mean ± SD from 3 biological replicates. b Immunoblot of […]
clone treated with 0.5 µM dTAGV-1 or the negative control dTAGV-1 compound for the indicated times. Vinculin was used as a loading control. The immunoblot shown is representative of 3 biological replicates. c Real-time cell confluency measurements of H1299 parental cells treated with 0.5 or 1 µM of dTAGV-1 or the negative control […]
2) treated with 0.5 or 1 µM of the negative control dTAGV-1 compound. Cells were monitored every 4 hr over a 6-day period. Cell confluency (%) was calculated using Incucyte Zoom software and shown as the mean ± SEM from 3 biological replicates.
as §1

Row | Structure (SMILES) | Cap translation, Average ([1]; 1μM) | IRES, Average ([1]; 1μM) | Cap translation, Average ([1]; 10μM) | IRES, Average ([1]; 10μM) | inhibitory activity in dual reporter assay ([1]; HEK293 cells, 1 or 10 µM, 24 hr) | thermal stabilisation of W73F eIF4E [2] | EC50 ([3]; read-out: EC50s, eIF4G:eIF4E electro-chemiluminescent binding assay, three different cell line lysates) | IC50 ([3]; read-out: full-length eIF4G:eIF4E IC50, lysates and intact cell engagement assays) | Suppl Fig. 10c signal, Average ([4]; Conc 0.0398 uM) | Suppl Fig. 10c signal, Average ([4]; Conc 0.0794 uM) | Suppl Fig. 10c signal, Average ([4]; Conc 0.1585 uM) | Suppl Fig. 10c signal, Average ([4]; Conc 0.3126 uM) | Suppl Fig. 10c signal, Average ([4]; Conc 0.6252 uM) | Suppl Fig. 10c signal, Average ([4]; Conc 1.0000 uM) | Suppl Fig. 10c signal, Average ([4]; Conc 1.9999 uM) | Suppl Fig. 10c signal, Average ([4]; Conc 3.9994 uM) | Suppl Fig. 10c signal, Average ([4]; Conc 10.0000 uM) | Quantification of 4E-BP1 protein expression, Average ([5]; H1299 cells) | Quantification of 4E-BP1 protein expression, Average ([5]; eIF4E dTAG C3-1 clone) | IC50 [6]
1 | CC[C@H](O[C@H](C)CO)c1ccc(-c2ccccc2F)cc1NCCO [Compound 4] | 87.46 | 89.67 | 74.14 | 83.90 | lacked inhibitory activity | destabilised, rather than stabilised | 1400 to 2600 nM | 1000 to 2000 nM | 107.08 | 87.69 | 100.85 | 97.88 | 95.93 | 93.39 | 114.58 | 94.77 | 126.74 |  |  | 
2 | CC[C@H](C(=O)N1CCCC[C@H]1C(=O)O[C@H](CCc1ccc(OC)c(OC)c1)c1ccccc1OCC(=O)NCCCCCCC(=O)N[C@H](C(=O)N1C[C@H](O)C[C@H]1C(=O)N[C@@H](C)c1ccc(-c2scnc2C)cc1)C(C)(C)C)c1cc(OC)c(OC)c(OC)c1 [dTAG^V-1] |  |  |  |  |  |  |  |  |  |  |  |  |  |  |  |  |  | 0.99 | 0.88 | 205 nM and 206 nM
